We go through two compounds from patent publication US11510921B2, “Bromocriptine formulations” (VEROSCIENCE LLC, priority 2017, dated 2022).

Where a name gives a salt, the structure may show the parent alone.

Series [1] can be described thus: Heat and humidity stability of formulations versus traditional formulation (Table 11). The settings on record: 40 C and 75% RH; short chain saccharide substituted for lactose.
Procedure: (§1) Effect of constituents on the stability and solubility of bromocriptine formulations. […] The stability and solubility of the formulations are assessed versus a traditional formulation of bromocriptine mesylate as described in Table 1.
Series [2] can be described thus: Water solubility of formulations versus traditional formulation (Table 11). The settings on record: 20 C.
Procedure: as §1
A short description of series [3]: Browning (degradation) reaction of bromocriptine with excipients in heated aqueous suspension. Format: physicochemical. The protocol: A series of reaction vessels were prepared containing various combinations of bromocriptine mesylate, Mg stearate, and/or lactose, with or without citric acid, in aqueous suspension and reacted at 60° C. for 55 hours. Additionally, samples were prepared wherein the Mg stearate was replaced/substituted with stearic acid.
2 ml of distilled water was added to the samples, which were then mixed by vortexing, placed in a reaction chamber with thermostat set at 50° C. for 24 hours, then (after 24 hours) set at 60° C. The color change of the sample solutions/mixtures were evaluated by comparing the color of the solution with a Standardized Color Chart; the color intensities of the sample solutions/mixtures (from clear to dark brown) was graded at specified time points from time 0 to time 55 hours (see FIG. 2). In FIG. 2, a number “0” indicates a clear solution or white suspension; a number “40” represents the darkest solution/suspension observed.

With `CC(C)C[C@H]1C(=O)N2CCC[C@H]2[C@]2(O)O[C@](NC(=O)[C@@H]3C=C4c5cccc6[nH]c(Br)c(c56)C[C@H]4N(C)C3)(C(C)C)C(=O)N12` [Bromocriptine Mesylate, (5′α)-2-bromo-12′-hydroxy-2′-(1-methylethyl)-5′-(2-methylpropyl)-ergotaman-3′,6′,18-trione monomethanesulfonate salt], the “Relative Improvement In Heat & Humidity Stability Versus Traditional Bromocriptine Mesylate Pharmaceutical Formulation” value in series [1] is reported as “+”. Moreover, the “Relative Improvement in Water Solubility Versus Traditional Bromocriptine Mesylate Pharmaceutical Formulation” value in series [2] (fatty acid or triglyceride + short chain saccharide), in series [2] (fatty acid or triglyceride substituted for Mg stearate) and in series [2] (short chain saccharide substituted for lactose) was “−” throughout.

As for `CC(C)C[C@H]1C(=O)N2CCC[C@H]2[C@]2(O)O[C@](NC(=O)[C@@H]3C=C4c5cccc6[nH]c(Br)c(c56)C[C@H]4N(C)C3)(C(C)C)C(=O)N12` [bromocriptine, (5′α)-2-bromo-12′-hydroxy-2′-(1-methylethyl)-5′-(2-methylpropyl)-ergotaman-3′,6′,18-trione], the “bromocriptine degradation and browning reaction” value in series [3] (addition of citric acid and substitution of Mg stearate with stearic acid) was “attenuated bromocriptine degradation and the browning reaction by the greatest magnitude”; in series [3] (addition of citric acid, Mg stearate alone or Mg stearate and lactose) it was “attenuated bromocriptine degradation and the browning reaction”; in series [3] (substitution of Mg stearate with stearic acid, with or without lactose), “attenuated bromocriptine degradation and the browning reaction”. The browning reaction entry was “A more intense browning reaction occurred” in series [3] (bromocriptine exposed to both Mg stearate and lactose); “a browning product was produced” in series [3] (bromocriptine with Mg stearate in aqueous environment, absence of lactose). Besides, the bromocriptine degradation result in series [3] (substitution of Mg stearate with solid castor oil, compared with stearic acid) is “attenuated bromocriptine degradation to an even greater extent”.
